These results are taken from patent US20250041226A1, “MULTIPARTICULATE ALBACONAZOLE COMPOSITION” (PALAU PHARMA, S.L.U., priority 2021, published 2025).

Data set [1] in a line: Dissolution test (Ph. Eur. 2.9.3, paddle apparatus, 0.1 N HCl, 45 min). The following applies: HCl 0.1N, 45 minutes where stated. In kind it is physicochemical. As to the method: • Analytical procedure: Ph. Eur. <2.9.3>; UVNis
• Paddle apparatus. • Stirring speed: 100 rpm. • Dissolution medium: 0.1 N Hydrochloric acid.
0.1 N Hydrochloric acid: using a pipette, transfer 8.5 ml of hydrochloric acid to a 1,000 ml calibrated flask and dilute to volume with water HPLC grade. • Volume of dissolution medium: 900 ml. • Dissolution time: 45 min. • Temperature of dissolution medium: 37±0.5° C.

The nature of data set [2]: Related substances (total impurities) by HPLC in stability experiments. Conditions: within the coating. The data set is classed as physicochemical. How it is done: • Analytical procedure: Ph. Eur. <2.2.29>; HPLC
• Column: Luna C18 (2) 5 μm, 150×4.6 mm. • Mobile phase: Acetonitrile/0.5% phosphoric acid as following:
• 0.5% phosphoric acid: using a pipette, transfer 5 ml of o-phosphoric acid (85%) to a 1,000 ml calibrated flask and dilute to volume with water HPLC grade. • Flow: 1.0 ml/min. • Wavelength detection: 210 nm. • Injection volume: 20 μl. • Column temperature: 30° C. • Retention time of Albaconazole: approx. 20.0 min. • Chromatogram time: 29 min.
Test solution: Grind the content (pellets) of, at least, 5 capsules, from the obtained powder weight, accurately, about 150 mg and transfer to a 25 ml calibrated flask. Add about 20 ml of acetonitrile HPLC grade and apply the ultrasound during approximately 10 min. Allow to cool and dilute to volume with acetonitrile HPLC grade. Filter through a 0.45 μm Millex HV-PVDF filter or similar, discard the first drops of filtrate (perform in triplicate).
Individual related substances that are lower than the quantification limit (Quantification limit: QL=0.015%), and any peak corresponding to placebo have not been quantified. The compositions of the invention may be used in the treatment of fungal infections in a patient by orally administering said compositions to said patient.

Molecules are shown by their SMILES.

For `C[C@@H](n1cnc2cc(Cl)ccc2c1=O)[C@](O)(Cn1cncn1)c1ccc(F)cc1F` [crystalline Albaconazole, Albaconazole], in data set [1], the “Dissolution behaviour (observation in words)” value was “dissolves faster at early times than amorphous Albaconazole”.

With `C[C@@H](n1cnc2cc(Cl)ccc2c1=O)[C@](O)(Cn1cncn1)c1ccc(F)cc1F` [Albaconazole form Ill, Albaconazole], the “Dissolution behaviour (observation in words)” value in data set [1] is given as “excellent dissolution results”. For the same compound, the “Impurities during stability experiments (in words)” value in data set [2] is on record as “low impurities during stability experiments”.
